Results: ChEMBL document CHEMBL4819025, “Natural Piperine Improves Lipid Metabolic Profile of High-Fat Diet-Fed Mice by Upregulating SR-B1 and ABCG8 Transporters” (J Nat Prod, 2021)
The source made the active and inactive calls. The calls are words filed in the database; no cut-off is given here.

Experiments:
[1] = tested on: HepG2; assay: Hypolipidemic activity in human HepG2 cells assessed as reduction in FFA-induced intracellular fat deposition at 10 uM after 24 hrs by Oil Red O staining based assay; format: functional, cell-based
[2] = Toxicity in high fat diet-induced ICR mouse model of hyperlipidemia assessed as change in kidney weight at 25 mg/kg, ig administered once daily for 8 weeks by H and E staining based microscopic analysis; format: organism-based; conditions: in vivo, po, 1344 h
[3] = tested on: HepG2; assay: Hypolipidemic activity in human HepG2 cells assessed as reduction in FFA-induced TG accumulation after 24 hrs; format: functional, cell-based; conditions: dose 10-100 µM
[4] = tested on: Mus musculus; assay: Effect on SR-B1 protein expression level in high-fat diet fed mouse small intestine at 25 mg/kg, po by Western blotting analysis; format: functional, organism-based
[5] = tested on: Mus musculus; assay: Effect on SR-B1 mRNA expression level in high-fat diet fed mouse liver at 25 mg/kg/day by qRT-PCR analysis; format: functional, organism-based
[6] = tested on: Mus musculus; assay: Effect on ABCA1 mRNA expression level in high-fat diet fed mouse small intestine at 25 mg/kg, po by qRT-PCR analysis; format: functional, organism-based
[7] = Toxicity in high fat diet-induced ICR mouse model of hyperlipidemia assessed as change in liver weight at 25 mg/kg, ig administered once daily for 8 weeks by H and E staining based microscopic analysis; format: organism-based; conditions: in vivo, po, 1344 h
[8] = Toxicity in high fat diet-induced ICR mouse model of hyperlipidemia assessed as change in lung weight at 25 mg/kg, ig administered once daily for 8 weeks by H and E staining based microscopic analysis; format: organism-based; conditions: in vivo, po, 1344 h
[9] = tested on: Mus musculus; assay: Effect on ABCG1 mRNA expression level in high-fat diet fed mouse liver at 25 mg/kg/day by qRT-PCR analysis; format: functional, organism-based
[10] = Toxicity in high fat diet-induced ICR mouse model of hyperlipidemia assessed as change in spleen weight at 25 mg/kg, ig administered once daily for 8 weeks by H and E staining based microscopic analysis; format: organism-based; conditions: in vivo, po, 1344 h
[11] = tested on: Mus musculus; assay: Effect on ABCG5 mRNA expression level in high-fat diet fed mouse small intestine at 25 mg/kg, po by qRT-PCR analysis; format: functional, organism-based
[12] = Toxicity in high fat diet-induced mouse model of hyperlipidemia assessed as change in food intake at 25 mg/kg, ig administered once daily for 8 weeks; format: organism-based; conditions: in vivo, po, 1344 h
[13] = tested on: Mus musculus; assay: Effect on ABCG8 protein expression level in high-fat diet fed mouse liver at 25 mg/kg/day by Western blotting analysis; format: functional, organism-based
[14] = tested on: Mus musculus; assay: Effect on SR-B1 mRNA expression level in high-fat diet fed mouse small intestine at 25 mg/kg, po by qRT-PCR analysis; format: functional, organism-based
[15] = Upregulation of […] expression in high-fat diet fed mouse small intestine assessed as fold increase at 25 mg/kg, po by qRT-PCR analysis; format: functional
[16] = tested on: Mus musculus; assay: Hypolipidemic activity in normal diet fed ICR mouse assessed as alteration in plasma TG level at 25 mg/kg, ig administered once daily for 8 weeks; format: functional, organism-based
[17] = tested on: Mus musculus; assay: Effect on ABCG5 mRNA expression level in high-fat diet fed mouse liver at 25 mg/kg/day by qRT-PCR analysis; format: functional, organism-based
[18] = tested on: Mus musculus; assay: Upregulation of SR-B1 protein expression level in high-fat diet fed mouse liver at 25 mg/kg/day by Western blotting analysis; format: functional, organism-based
[19] = tested on: Mus musculus; assay: Effect on ABCA1 protein expression level in high-fat diet fed mouse small intestine at 25 mg/kg, po by Western blotting analysis; format: functional, organism-based
[20] = tested on: Mus musculus; assay: Effect on NPC1L1 protein expression level in high-fat diet fed mouse liver at 25 mg/kg/day by Western blotting analysis; format: functional, organism-based
[21] = tested on: Mus musculus; assay: Hypolipidemic activity in normal diet fed ICR mouse assessed as alteration in plasma TC level at 25 mg/kg, ig administered once daily for 8 weeks; format: functional, organism-based
[22] = Toxicity in high fat diet-induced ICR mouse model of hyperlipidemia assessed as change in heart weight at 25 mg/kg, ig administered once daily for 8 weeks by H and E staining based microscopic analysis; format: organism-based; conditions: in vivo, po, 1344 h
[23] = tested on: Mus musculus; assay: Effect on NPC1L1 protein expression level in high-fat diet fed mouse small intestine at 25 mg/kg, po by Western blotting analysis; format: functional, organism-based
[24] = tested on: Mus musculus; assay: Hypolipidemic activity in normal diet fed ICR mouse assessed as alteration in plasma HDL-C level at 25 mg/kg, ig administered once daily for 8 weeks; format: functional, organism-based
[25] = tested on: Mus musculus; assay: Hypolipidemic activity in high fat diet-induced ICR mouse hyperlipidemic model assessed as reduction in plasma TG level at 25 mg/kg, ig administered once daily for 8 weeks; format: functional; parameters: scale not given: the % may be the effect or the level left
[26] = tested on: Mus musculus; assay: Hypolipidemic activity in normal diet fed ICR mouse assessed as alteration in plasma LDL-C level at 25 mg/kg, ig administered once daily for 8 weeks; format: functional, organism-based
[27] = tested on: Mus musculus; assay: Effect on ABCA1 protein expression level in high-fat diet fed mouse liver at 25 mg/kg/day by Western blotting analysis; format: functional, organism-based
[28] = tested on: Mus musculus; assay: Effect on ABCG5 protein expression level in high-fat diet fed mouse small intestine at 25 mg/kg, po by Western blotting analysis; format: functional, organism-based
[29] = tested on: HepG2; assay: Cytotoxicity against human HepG2 cells assessed as reduction in cell viability at 1 to 100 uM after 24 hrs by CCK8 assay; format: cell-based; conditions: hepg2, 24 h, dose 1-100 µM
[30] = tested on: Mus musculus; assay: Effect on ABCA1 mRNA expression level in high-fat diet fed mouse liver at 25 mg/kg/day by qRT-PCR analysis; format: functional, organism-based
[31] = tested on: Mus musculus; assay: Effect on ABCG1 protein expression level in high-fat diet fed mouse liver at 25 mg/kg/day by Western blotting analysis; format: functional, organism-based
[32] = tested on: Mus musculus; assay: Hypolipidemic activity in high fat diet-induced ICR mouse hyperlipidemic model assessed as reduction in plasma LDL-C level at 25 mg/kg, ig administered once daily for 8 weeks; format: functional; parameters: scale not given: the % may be the effect or the level left
[33] = tested on: Mus musculus; assay: Effect on NPC1 mRNA expression level in high-fat diet fed mouse liver at 25 mg/kg/day by qRT-PCR analysis; format: functional, organism-based
[34] = tested on: Mus musculus; assay: Upregulation of ABCG8 mRNA expression in high-fat diet fed mouse liver at 25 mg/kg/day by qRT-PCR analysis; format: functional, organism-based
[35] = tested on: Mus musculus; assay: Effect on NPC1 mRNA expression level in high-fat diet fed mouse small intestine at 25 mg/kg, po by qRT-PCR analysis; format: functional, organism-based
[36] = tested on: Mus musculus; assay: Hypolipidemic activity in normal diet fed ICR mouse assessed as reduction in TC level in liver at 25 mg/kg, ig administered once daily for 8 weeks by H and E staining based microscopic analysis; format: functional, organism-based
[37] = Upregulation of ABCG8 protein expression in high-fat diet fed mouse small intestine at 25 mg/kg, po by Western blotting analysis; format: functional
[38] = tested on: Mus musculus; assay: Hypolipidemic activity in high fat diet-induced ICR mouse hyperlipidemic model assessed as reduction in fat accumulation in liver at 25 mg/kg, ig administered once daily for 8 weeks by H and E staining based microscopic analysis; format: functional, organism-based
[39] = Toxicity in high fat diet-induced ICR mouse model of hyperlipidemia assessed as change in stomach weight at 25 mg/kg, ig administered once daily for 8 weeks by H and E staining based microscopic analysis; format: organism-based; conditions: in vivo, po, 1344 h
[40] = tested on: Mus musculus; assay: Hypolipidemic activity in normal diet fed ICR mouse assessed as reduction in TG level in liver at 25 mg/kg, ig administered once daily for 8 weeks by H and E staining based microscopic analysis; format: functional, organism-based
[41] = tested on: Mus musculus; assay: Hypolipidemic activity in high fat diet-induced ICR mouse hyperlipidemic model assessed as increase in plasma HDL-C level at 25 mg/kg, ig administered once daily for 8 weeks; format: functional, organism-based
[42] = tested on: Mus musculus; assay: Hypolipidemic activity in high fat diet-induced ICR mouse hyperlipidemic model assessed as reduction in TG level in liver at 25 mg/kg, ig administered once daily for 8 weeks by H and E staining based microscopic analysis; format: functional, organism-based
[43] = Toxicity in high fat diet-induced ICR mouse model of hyperlipidemia assessed as change in hepatic morphology at 25 mg/kg, ig administered once daily for 8 weeks by H and E staining based microscopic analysis; format: organism-based; conditions: in vivo, po, 1344 h
[44] = tested on: Mus musculus; assay: Hypolipidemic activity in high fat diet-induced ICR mouse hyperlipidemic model assessed as reduction in plasma TC level at 25 mg/kg, ig administered once daily for 8 weeks; format: functional; parameters: scale not given: the % may be the effect or the level left
[45] = tested on: HepG2; assay: Hypolipidemic activity in human HepG2 cells assessed as reduction in FFA-induced intracellular fat deposition at 50 to 100 uM after 24 hrs by Oil Red O staining based assay; format: functional; parameters: scale not given: the % may be the effect or the level left; conditions: dose 50-100 µM
[46] = tested on: Mus musculus; assay: Effect on ABCG5 protein expression level in high-fat diet fed mouse liver at 25 mg/kg/day by Western blotting analysis; format: functional, organism-based
[47] = tested on: Mus musculus; assay: Hypolipidemic activity in high fat diet-induced ICR mouse hyperlipidemic model assessed as reduction in TC level in liver at 25 mg/kg, ig administered once daily for 8 weeks by H and E staining based microscopic analysis; format: functional, organism-based
[48] = Toxicity in high fat diet-induced mouse model of hyperlipidemia assessed as change in body weight at 25 mg/kg, ig administered once daily for 8 weeks; format: organism-based; conditions: in vivo, po, 1344 h
[49] = tested on: HepG2; assay: Hypolipidemic activity in human HepG2 cells assessed as reduction in FFA-induced lipid accumulation incubated for 24 hrs by Oil Red O staining based assay; format: functional, cell-based; conditions: dose 10-100 µM

CC(C)c1c(C(=O)Nc2ccccc2)c(-c2ccccc2)c(-c2ccc(F)cc2)n1CC[C@@H](O)C[C@@H](O)CC(=O)O
Activity [1]: Active

O=C(/C=C/C=C/c1ccc2c(c1)OCO2)N1CCCCC1 [PIPERINE]
Activity [2]: Non-Toxic
Activity [3]: Dose-Dependent Effect
Activity [4]: inactive
Activity [5]: inactive
Activity [6]: inactive
Activity [7]: Non-Toxic
Activity [8]: Non-Toxic
Activity [9]: inactive
Activity [10]: Non-Toxic
Activity [11]: inactive
Activity [12]: Non-Toxic
Activity [13]: inactive
Activity [14]: inactive
fold change (FC) [15]: 1.8
Activity [16]: inactive
Activity [17]: inactive
Activity [18]: Active
Activity [19]: inactive
Activity [20]: inactive
Activity [21]: inactive
Activity [22]: Non-Toxic
Activity [23]: inactive
Activity [24]: inactive
Activity [25]: 43.6%
Activity [26]: inactive
Activity [27]: inactive
Activity [28]: inactive
Activity [29]: Non-Toxic
Activity [30]: inactive
Activity [31]: inactive
Activity [32]: 34.4%
Activity [33]: inactive
Activity [34]: Active
Activity [35]: inactive
Activity [36]: inactive
Activity [37]: 80%
Activity [38]: Active
Activity [39]: Non-Toxic
Activity [40]: inactive
Activity [41]: Active
Activity [42]: Active
Activity [43]: Non-Toxic
Activity [44]: 27.5%
Activity [45]: 36%
Activity [46]: inactive
Activity [47]: Active
Activity [48]: Non-Toxic
Activity [49]: Dose-Dependent Effect
